In PubChem BioAssay AID493137 (Sanford-Burnham Center for Chemical Genomics, 2011) one finds IC50 data, which are given here for 76 compounds.

pIC50: −log10 of the molar value. Values joined by “and” are separate entries in the source; they are usually repeats but may differ in a detail not shown here. Equal values may be shown once. Active and inactive are the calls of the source.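 How the source made its calls: active means compounds whose mean IC50 is under 100 micromolar in the phosphatase inhibition dose series; inactive means the rest.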 Where only a bound is given, the exact number is not on record here.

For the assay, the target named is Intestinal-type alkaline phosphatase (Homo sapiens) (UniProt P09923). The assay can be described thus: human IAP inhibitors, SAR follow-up, biochemical, luminescence (AID 493137). As to conditions: purified human IAP, CDP-Star luminescence, 30 min.
Sequence of Intestinal-type alkaline phosphatase (Homo sapiens) (P09923 whole entry, looked up): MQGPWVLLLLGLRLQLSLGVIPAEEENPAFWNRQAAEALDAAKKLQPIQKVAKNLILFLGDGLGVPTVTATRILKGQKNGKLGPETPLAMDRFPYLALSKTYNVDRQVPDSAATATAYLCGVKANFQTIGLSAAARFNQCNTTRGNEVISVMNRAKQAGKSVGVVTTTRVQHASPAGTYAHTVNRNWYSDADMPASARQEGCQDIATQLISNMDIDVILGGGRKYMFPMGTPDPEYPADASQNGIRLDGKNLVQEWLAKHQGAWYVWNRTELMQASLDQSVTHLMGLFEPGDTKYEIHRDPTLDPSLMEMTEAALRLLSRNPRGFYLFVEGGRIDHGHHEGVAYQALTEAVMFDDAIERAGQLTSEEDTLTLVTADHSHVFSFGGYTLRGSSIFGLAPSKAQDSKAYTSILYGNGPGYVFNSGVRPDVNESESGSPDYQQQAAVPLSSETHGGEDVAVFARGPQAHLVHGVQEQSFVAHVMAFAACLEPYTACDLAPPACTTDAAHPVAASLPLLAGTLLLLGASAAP
Take `Cc1ccc(-c2ccc(/C=N/N=C3\NC(=O)C(CC(=O)O)S3)o2)c([N+](=O)[O-])c1` (stereo unspecified): the IC50 (usually the concentration needed to halve the response being measured) is > 100 µM (inactive). Regarding `Oc1ccc(-c2csc(Nc3ccccc3)n2)c(O)c1`, the IC50 is > 100 µM (inactive). For the compound `Oc1ccc(Nc2nc(-c3ccc(O)c(O)c3)cs2)cc1`, the pIC50 – broadly, the negative decadic logarithm of the IC50, by convention in mol/L – was 4.94. Regarding `Cc1cccc2sc(NNC(=O)c3ccc4c(c3)OCCO4)nc12`, the IC50 is > 100 µM (inactive). With `COc1cc(C=NNC(=S)Nc2cccc(C(=O)O)c2)ccc1O`, the IC50 was > 100 µM (inactive).

For `Cc1cccc(Nc2nc(-c3ccc(O)c(O)c3)cs2)c1`, the IC50 is > 100 µM (inactive). On to `COc1cc(C=NNC(=S)Nc2cccc(S(=O)(=O)N(C)C)c2)cc(OC)c1O`, for which the IC50 was > 100 µM (inactive). Regarding `COC(=O)/C=C1/S/C(=N/N=Cc2ccc(N(C)C)cc2)NC1=O`, the IC50 is > 100 µM (inactive). On the same count and under the same terms, in the case of `COC(=O)/C=C1/S/C(=N/NC(=O)c2ccc(OC)cc2)NC1=O` it was > 100 µM (inactive). `CC(=NNC(=S)Nc1ccccc1)c1ccc2c(c1)OCO2`: the IC50 was > 100 µM (inactive). Still for that read-out and setting: under `Cc1ccc(Nc2nc(-c3ccc(O)c(O)c3)cs2)cc1F` stands > 100 µM (inactive); under `O=[N+]([O-])c1ccccc1NC(=S)N/N=C/c1ccc(O)c(O)c1O`, > 100 µM (inactive); under `COC(=O)/C=C1/S/C(=N/NC(=O)c2ccc(Cl)cc2Cl)NC1=O`, > 100 µM (inactive).

In the case of `Cn1c(=S)n(N=Cc2ccc3c(c2)OCO3)c2ccccc21`, the IC50 is > 100 µM (inactive).

Take `CCc1ccccc1Nc1nc(-c2ccc(O)c(O)c2)cs1`: the negative-log IC50 (pIC50) is 4.75 and 4.84.

As for `COC(=O)/C=C1/S/C(=N/NC(=O)c2ccccc2)NC1=O`, the IC50 was > 100 µM (inactive). On the same count and under the same terms, in the case of `Cc1cccc(Nc2nc(-c3ccc(O)c(C(N)=O)c3)cs2)c1` it was > 100 µM (inactive). For `S=C(NCCC(c1ccccc1)c1ccccc1)Nc1ccc(Cl)cc1Cl`, the IC50 is > 100 µM (inactive). Turning to `COC(=O)/C=C1\SC(N=Nc2c(O)[nH]c3ccccc23)=NC1=O`, the IC50 was > 100 µM (inactive).

With `CCN(CC)S(=O)(=O)c1ccc(-c2csc(=Nc3cccc4ccccc34)n2C)cc1`, the IC50 was > 100 µM (inactive).

Take `Cc1cccc(NC(=S)NNC(=O)c2ccc3c(c2)OCO3)c1`: the IC50 is > 100 µM (inactive). As to `Cc1ccc(Nc2nc(-c3ccc(O)c(C(N)=O)c3)cs2)cc1`, the IC50 is > 100 µM (inactive). The same measure, in the same setting: under `COc1ccc(Cl)cc1Nc1nc(-c2ccc(O)c(O)c2)cs1` stands > 100 µM (inactive). Still for that read-out and setting: in the case of `Cc1c(Cl)cccc1Nc1nc(-c2ccc(O)c(O)c2)cs1` it was > 100 µM (inactive) and 96.6 µM; in that of `COc1cc(C(=O)NNC(=S)Nc2ccc(S(N)(=O)=O)cc2)cc(OC)c1OC`, > 100 µM (inactive); in that of `COc1ccc(/C=N/N=C2/NC(=O)C(CC(=O)O)S2)cc1OC` (stereo unspecified), > 100 µM (inactive). The same measure, in the same setting: under `Cc1cccc(NC(=S)NN=Cc2ccc3c(c2)OCO3)c1` stands > 100 µM (inactive). As for `COc1ccc(NC(=S)NCCC(c2ccccc2)c2ccccc2)cc1`, the IC50 was > 100 µM (inactive). `COc1ccc(/C=N/N=C2\NC(=O)C(CC(=O)O)S2)c(OC)c1` (stereo unspecified): the IC50 was > 100 µM (inactive).

Take `COc1ccc(C=Nn2c(=S)n(C)c3ccccc32)cc1OC`: the IC50 was > 100 µM (inactive). Still for that read-out and setting: under `CCOc1cc(C=N/N=C2/NC(=O)C(CC(=O)O)S2)ccc1OCc1ccccc1Cl` (stereo unspecified) stands > 100 µM (inactive); under `CC(C)(C)c1ccc(/C=N/N=C2\NC(=O)C(CC(=O)O)S2)cc1` (stereo unspecified), > 100 µM (inactive). Consider `Cc1ccc2sc(NNC(=O)c3ccc4c(c3)OCCO4)nc2c1C`, for which the IC50 was > 100 µM (inactive). `Cc1ccc(C)c(Nc2nc(-c3ccc(O)cc3O)cs2)c1`: the IC50 was > 100 µM (inactive). Consider `NS(=O)(=O)c1ccc(Nc2nc(-c3ccc(O)cc3O)cs2)cc1`, for which the IC50 was > 100 µM (inactive). Consider `COc1ccc(-c2csc(Nc3cccc4ccccc34)n2)cc1F`, for which the IC50 is > 100 µM (inactive). In the case of `COC(=O)/C=C1/S/C(=N/NC(=O)c2ccccc2C)NC1=O`, the IC50 was > 100 µM (inactive). On the same count and under the same terms, under `Cc1ccc(Nc2nc(-c3ccc(O)cc3O)cs2)cc1C` stands > 100 µM (inactive). For the compound `COC(=O)C/C=N/N=C1\NC(=O)/C(=C/C(=O)O)S1`, the IC50 was > 100 µM (inactive).

For the compound `CCOc1cc(C=NNC(=S)NC2CCCCC2)ccc1O`, the IC50 is > 100 µM (inactive).

As to `COc1ccc(C=NN=C2SC(CC(=O)O)C(=O)N2c2ccc(O)cc2)cc1` (stereo unspecified), the IC50 is > 100 µM (inactive). Turning to `N#CCCn1cc(/C=N/N=C2/NC(=O)C(CC(=O)O)S2)c(-c2ccc(F)cc2)n1` (stereo unspecified), the IC50 is > 100 µM (inactive).

`COc1ccc(-c2csc(Nc3cccc4ccccc34)n2)cc1`: the IC50 is > 100 µM (inactive).

As for `Cc1ccc(Cl)cc1Nc1nc(-c2ccc(O)c(O)c2)cs1`, the pIC50 was 4.61.

Take `COC(=O)/C=C1\S/C(=N/N=C/CC(=O)OC)NC1=O`: the IC50 was > 100 µM (inactive). `O=S(=O)(Nc1ncccn1)c1ccc(NC(=S)NCCC(c2ccccc2)c2ccccc2)cc1`: the IC50 was > 100 µM (inactive). For the compound `COc1cc([N+](=O)[O-])ccc1NC(=S)NCCC(c1ccccc1)c1ccccc1`, the IC50 was > 100 µM (inactive). `NS(=O)(=O)c1ccc(Nc2nc(-c3ccc(O)c(O)c3)cs2)cc1`: the pIC50 is 4.35. In the case of `COc1ccc(C=NNC(=S)Nc2ccccc2[N+](=O)[O-])cc1O`, the IC50 was > 100 µM (inactive). As to `O=S(=O)(c1ccc(NC(=S)N/N=C/c2ccc(O)c(O)c2)cc1)N1CCOCC1`, the IC50 is > 100 µM (inactive).

Turning to `FC(F)(F)c1cccc(NC(=S)NCCC(c2ccccc2)c2ccccc2)c1`, the IC50 was > 100 µM (inactive). Still for that read-out and setting: in the case of `CN(C)S(=O)(=O)c1cccc(NC(=S)NN=Cc2ccc(O)c(O)c2O)c1` it was > 100 µM (inactive).

As to `O=C(O)CC1S/C(=N/N=C/c2ccco2)NC1=O` (stereo unspecified), the IC50 is > 100 µM (inactive). On the same count and under the same terms, in the case of `Cc1ccc2nc(NNC(=O)c3ccc4c(c3)OCCO4)sc2c1` it was > 100 µM (inactive).

Consider `Cc1ccc(Nc2nc(-c3ccc(O)cc3O)cs2)cc1`, for which the IC50 is > 100 µM (inactive). On the same count and under the same terms, under `O=S(=O)(c1ccc(NC(=S)N/N=C/c2ccc(O)c(O)c2O)cc1)N1CCOCC1` stands > 100 µM (inactive).

In the case of `O=[N+]([O-])c1ccccc1NC(=S)NN=Cc1ccc(O)c(O)c1`, the negative logarithm of the IC50 (pIC50) is 4.12. Take `O=[N+]([O-])c1ccc(NC(=S)NCCC(c2ccccc2)c2ccccc2)cc1`: the IC50 was > 100 µM (inactive).

As for `COc1cccc(Nc2nc(-c3ccc(O)cc3)cs2)c1`, the IC50 is > 100 µM (inactive). With `COc1cc(C=NNC(=S)Nc2cccc(S(=O)(=O)N(C)C)c2)ccc1O`, the IC50 is > 100 µM (inactive). As to `CCOc1cc(/C=N/N=C2\NC(=O)C(CC(=O)O)S2)ccc1O` (stereo unspecified), the IC50 was > 100 µM (inactive). For `CCOc1ccc(Nc2nc(-c3ccc(O)c(O)c3)cs2)cc1`, the IC50 is > 100 µM (inactive). As for `Cc1cccc(C)c1NC(=S)N/N=C/c1ccc(O)c(O)c1O`, the IC50 was > 100 µM (inactive). Turning to `COc1ccc(C(=O)NNC(=S)NC2CCCCC2)cc1OC`, the IC50 is > 100 µM (inactive).

With `COc1cc(C=NN=C2SC(CC(=O)O)C(=O)N2c2ccc(O)cc2)ccc1O` (stereo unspecified), the IC50 was > 100 µM (inactive). Still for that read-out and setting: under `Cc1ccc(Nc2nc(-c3ccc(O)cc3O)cs2)cc1F` stands > 100 µM (inactive); under `Cc1cc(=O)oc2cc(NC(=S)NCCC(c3ccccc3)c3ccccc3)ccc12`, > 100 µM (inactive). Take `COC(=O)/C=C1\S/C(=N/N=C/c2ccc(Cl)cc2)NC1=O`: the IC50 was > 100 µM (inactive). Still for that read-out and setting: in the case of `Cc1ccc(Nc2nc(-c3ccc(O)c(O)c3)cs2)cc1` it was > 100 µM (inactive). With `Cc1cc(C)cc(Nc2nc(-c3ccc(O)cc3O)cs2)c1`, the IC50 is > 100 µM (inactive). With `COc1cc(/C=N/N=C2/SCC(=O)N2c2ccc(O)cc2)ccc1O`, the IC50 was > 100 µM (inactive). For the compound `Oc1ccc(-c2csc(Nc3cccc4ccccc34)n2)cc1O`, the pIC50 is 4.48 and 4.33. For the compound `COc1cc([N+](=O)[O-])ccc1NC(=S)NNC(=O)c1ccc2c(c1)OCO2`, the IC50 is > 100 µM (inactive). The same measure, in the same setting: under `Oc1ccc(-c2csc(Nc3ccc(F)cc3)n2)cc1O` stands > 100 µM (inactive); under `COc1cc(/C=N/N=C2\NC(=O)C(CC(=O)O)S2)cc(OC)c1OC` (stereo unspecified), > 100 µM (inactive). Turning to `COC(=O)/C=C1/S/C(=N/NC(=O)c2ccccc2OC)NC1=O`, the IC50 was > 100 µM (inactive).
